Calls of active or inactive are those of the source.
What was measured:
[1] = target: T1, Sentrin-specific protease 8 (Homo sapiens, UniProt Q96LD8); format: functional
T1 sequence (Q96LD8 whole entry): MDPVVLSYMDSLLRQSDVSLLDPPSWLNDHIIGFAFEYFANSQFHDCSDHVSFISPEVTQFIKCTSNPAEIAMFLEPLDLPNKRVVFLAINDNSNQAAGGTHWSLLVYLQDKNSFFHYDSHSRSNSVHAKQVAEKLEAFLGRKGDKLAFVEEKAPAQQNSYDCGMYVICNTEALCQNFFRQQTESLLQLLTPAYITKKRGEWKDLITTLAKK

Caspase-3 = target: T2, Caspase-3 (Homo sapiens, UniProt P42574); assay: Dose-response confirmation of uHTS inhibitor hits of Sentrin-Specific Protease 8 in a Caspase-3 Fluorescence assay.; format: functional
T2 sequence (P42574 whole entry): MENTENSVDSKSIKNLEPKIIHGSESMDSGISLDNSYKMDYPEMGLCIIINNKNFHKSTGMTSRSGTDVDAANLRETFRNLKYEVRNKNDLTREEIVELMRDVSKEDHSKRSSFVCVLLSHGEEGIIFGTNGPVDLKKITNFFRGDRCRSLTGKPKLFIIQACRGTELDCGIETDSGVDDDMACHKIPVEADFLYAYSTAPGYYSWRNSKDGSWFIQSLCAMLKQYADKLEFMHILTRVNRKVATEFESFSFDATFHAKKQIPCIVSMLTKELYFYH

[2] = target: T1, Sentrin-specific protease 8; format: functional; remark: listed apart in the source
A549 = assay: A549 cell toxicity, dose response, cytotoxicity control, plate reader, cherry-pick samples (AID 687028); format: functional, cell-based; conditions: Homo sapiens
[3] = cytotoxicity in HEK-293T cells, dose response, cytotoxicity control for TCR NF-kB inhibitor project, luminescence, T-cell screen hits (AID 489026); format: functional, cell-based;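 note: cells exposed to compound about 14 hours before the viability readout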
[4] = target: T3, Methionyl-tRNA synthetase, putative (Trypanosoma brucei brucei, UniProt Q38C91); format: functional, Trypanosoma brucei brucei strain 927/4 GUTat10.1
T3 sequence (Q38C91 whole entry): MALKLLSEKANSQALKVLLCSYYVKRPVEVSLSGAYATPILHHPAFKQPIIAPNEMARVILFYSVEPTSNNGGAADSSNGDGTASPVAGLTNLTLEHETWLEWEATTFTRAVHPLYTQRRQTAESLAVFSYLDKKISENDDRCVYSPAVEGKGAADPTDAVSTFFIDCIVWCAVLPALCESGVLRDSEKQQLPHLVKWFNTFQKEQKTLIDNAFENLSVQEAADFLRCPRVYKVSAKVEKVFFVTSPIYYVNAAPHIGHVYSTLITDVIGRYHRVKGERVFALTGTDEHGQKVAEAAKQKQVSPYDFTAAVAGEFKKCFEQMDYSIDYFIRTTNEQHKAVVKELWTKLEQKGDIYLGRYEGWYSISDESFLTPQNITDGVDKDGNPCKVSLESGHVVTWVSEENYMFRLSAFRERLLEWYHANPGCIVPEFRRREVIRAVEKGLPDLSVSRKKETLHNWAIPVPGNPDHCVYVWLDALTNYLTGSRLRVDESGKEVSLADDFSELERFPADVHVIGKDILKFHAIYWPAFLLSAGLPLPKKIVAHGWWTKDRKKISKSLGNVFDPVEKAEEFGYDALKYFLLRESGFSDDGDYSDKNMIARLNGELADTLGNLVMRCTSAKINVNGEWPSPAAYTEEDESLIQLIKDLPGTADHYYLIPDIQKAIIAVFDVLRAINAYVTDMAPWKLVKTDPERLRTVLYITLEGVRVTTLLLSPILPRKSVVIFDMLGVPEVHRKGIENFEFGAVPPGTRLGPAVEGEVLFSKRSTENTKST

[5] = target: T3, Methionyl-tRNA synthetase, putative; format: functional, Trypanosoma brucei brucei strain 927/4 GUTat10.1; remark: listed apart in the source
[6] = Counterscreen for inhibitors of Trypanosoma brucei methionyl tRNA synthetase (MetRS): Luminescence-based cell-based high throughput dose response assay to identify compounds that are cytotoxic to Jurkat human T lymphocyte cells.; format: functional
[7] = microbe, parasite or virus in culture; format: functional; conditions: Mycobacterium tuberculosis
Protein Wnt-3a = Protein Wnt-3a (Mus musculus, UniProt P27467); assay: Wnt3a-driven reporter signaling inhibition, dose response, selectivity assay for Gli-SUFU antagonist project, Wnt-LIGHT cells, luminescence (AID 651570); format: functional; conditions: read-out: IC50_Mean;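 note: Wnt-LIGHT reporter cells stimulated with conditioned medium from Wnt3a-producing cells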
Protein Wnt-3a, sequence (P27467 whole entry): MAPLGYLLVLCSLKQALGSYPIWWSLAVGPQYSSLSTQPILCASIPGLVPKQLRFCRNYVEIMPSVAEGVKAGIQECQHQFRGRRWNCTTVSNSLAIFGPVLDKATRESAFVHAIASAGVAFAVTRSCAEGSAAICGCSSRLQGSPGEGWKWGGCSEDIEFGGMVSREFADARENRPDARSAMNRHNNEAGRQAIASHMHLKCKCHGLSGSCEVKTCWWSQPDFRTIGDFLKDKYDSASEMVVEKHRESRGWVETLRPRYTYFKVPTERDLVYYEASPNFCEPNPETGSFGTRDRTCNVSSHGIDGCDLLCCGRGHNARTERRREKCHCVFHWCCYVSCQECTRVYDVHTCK

[8] = target: Matrix metalloproteinase-14 (Homo sapiens, UniProt P50281); assay: Dose Response confirmation of uHTS hits for a small molecule inhibitors of MT1-MMP activation in a fluorescence assay set 1.; format: functional
[9] = target: T4, Tyrosine-protein phosphatase non-receptor type 22 (Homo sapiens, UniProt Q9Y2R2); assay: PTPN22 phosphatase inhibition, dose response, selectivity assay for STEP inhibitor project, biochemical (AID 624241); format: functional
T4 sequence (Q9Y2R2 whole entry): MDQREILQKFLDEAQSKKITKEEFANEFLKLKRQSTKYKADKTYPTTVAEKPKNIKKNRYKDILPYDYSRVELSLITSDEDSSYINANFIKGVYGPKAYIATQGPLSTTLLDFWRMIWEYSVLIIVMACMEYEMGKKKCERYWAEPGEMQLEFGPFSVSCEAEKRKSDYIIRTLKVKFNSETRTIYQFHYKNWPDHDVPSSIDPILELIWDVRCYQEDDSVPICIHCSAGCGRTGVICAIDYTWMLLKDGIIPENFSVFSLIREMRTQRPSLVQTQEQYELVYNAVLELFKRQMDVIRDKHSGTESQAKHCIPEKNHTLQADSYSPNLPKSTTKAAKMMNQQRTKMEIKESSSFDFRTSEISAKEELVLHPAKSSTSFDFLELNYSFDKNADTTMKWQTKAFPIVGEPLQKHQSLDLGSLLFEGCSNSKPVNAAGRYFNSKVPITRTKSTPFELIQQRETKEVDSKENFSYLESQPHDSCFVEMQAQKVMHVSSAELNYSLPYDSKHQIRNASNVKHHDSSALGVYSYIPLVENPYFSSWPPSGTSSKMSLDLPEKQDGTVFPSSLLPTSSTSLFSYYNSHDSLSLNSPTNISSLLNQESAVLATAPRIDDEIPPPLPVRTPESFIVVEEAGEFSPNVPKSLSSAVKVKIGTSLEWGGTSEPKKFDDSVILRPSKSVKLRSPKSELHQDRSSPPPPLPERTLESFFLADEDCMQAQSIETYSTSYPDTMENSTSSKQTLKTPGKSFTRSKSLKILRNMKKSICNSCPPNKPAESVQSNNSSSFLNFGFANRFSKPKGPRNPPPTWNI

[10] = target: Dual specificity protein phosphatase 3 (Homo sapiens, UniProt P51452); assay: VHR phosphatase inhibition, dose response, selectivity assay for STEP inhibitor project, biochemical (AID 602374); format: functional; conditions: read-out: IC50_Mean
Dual specificity protein phosphatase 3, sequence (P51452 whole entry): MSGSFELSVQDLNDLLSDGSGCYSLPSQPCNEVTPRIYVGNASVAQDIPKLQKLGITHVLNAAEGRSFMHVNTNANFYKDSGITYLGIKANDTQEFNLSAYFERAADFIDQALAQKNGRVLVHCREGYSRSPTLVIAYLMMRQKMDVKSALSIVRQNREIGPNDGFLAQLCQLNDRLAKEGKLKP

[11] = target: Tyrosine-protein phosphatase non-receptor type 5 (Homo sapiens, UniProt P54829); assay: STEP phosphatase inhibitors, confirmation, biochemical, fluorescence intensity, uHTS hits (AID 602372); format: functional; conditions: read-out: IC50_Mean
Tyrosine-protein phosphatase non-receptor type 5, sequence (P54829 whole entry): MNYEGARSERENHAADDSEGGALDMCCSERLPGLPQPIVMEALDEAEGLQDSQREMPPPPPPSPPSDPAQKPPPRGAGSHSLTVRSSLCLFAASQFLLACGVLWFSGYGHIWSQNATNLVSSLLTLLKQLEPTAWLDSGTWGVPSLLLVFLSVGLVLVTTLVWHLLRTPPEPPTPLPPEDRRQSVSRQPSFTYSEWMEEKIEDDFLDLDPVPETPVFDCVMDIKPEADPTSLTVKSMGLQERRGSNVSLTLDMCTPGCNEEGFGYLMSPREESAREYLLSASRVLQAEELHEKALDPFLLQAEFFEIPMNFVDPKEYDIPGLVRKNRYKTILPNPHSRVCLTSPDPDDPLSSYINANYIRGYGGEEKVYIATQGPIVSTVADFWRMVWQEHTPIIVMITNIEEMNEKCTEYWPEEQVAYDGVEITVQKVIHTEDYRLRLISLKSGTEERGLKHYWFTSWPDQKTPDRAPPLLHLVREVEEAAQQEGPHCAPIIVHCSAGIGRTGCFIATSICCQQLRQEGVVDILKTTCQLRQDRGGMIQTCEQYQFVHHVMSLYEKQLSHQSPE

[12] = target: Tyrosine-protein phosphatase non-receptor type 11 (Homo sapiens, UniProt Q06124); assay: SHP2 phosphatase inhibition, dose response, selectivity assay for STEP inhibitor project, biochemical (AID 602367); format: functional; conditions: read-out: IC50_Mean
Tyrosine-protein phosphatase non-receptor type 11, sequence (Q06124 whole entry): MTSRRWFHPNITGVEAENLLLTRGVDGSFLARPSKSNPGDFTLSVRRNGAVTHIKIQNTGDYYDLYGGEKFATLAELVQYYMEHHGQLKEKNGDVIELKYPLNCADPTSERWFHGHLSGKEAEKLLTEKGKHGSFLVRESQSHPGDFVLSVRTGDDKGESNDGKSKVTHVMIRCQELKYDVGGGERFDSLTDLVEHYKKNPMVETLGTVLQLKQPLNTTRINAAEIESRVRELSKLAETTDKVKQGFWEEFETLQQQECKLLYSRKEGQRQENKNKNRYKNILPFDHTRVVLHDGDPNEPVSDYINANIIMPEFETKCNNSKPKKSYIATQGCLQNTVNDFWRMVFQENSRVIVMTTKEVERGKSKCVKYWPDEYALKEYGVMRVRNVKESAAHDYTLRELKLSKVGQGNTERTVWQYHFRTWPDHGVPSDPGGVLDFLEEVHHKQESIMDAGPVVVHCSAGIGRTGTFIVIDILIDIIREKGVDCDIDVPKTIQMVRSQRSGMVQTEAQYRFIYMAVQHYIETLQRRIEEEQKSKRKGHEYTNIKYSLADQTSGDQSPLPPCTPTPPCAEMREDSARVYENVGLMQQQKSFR

O=C(Cn1nc(Cc2ccncc2)c2ccccc2c1=O)N1CCc2ccccc2C1
IC50 [1]: 3.48 µM (active)
IC50 (Caspase-3): 13.3 µM (active)
IC50 [2]: 6.46 µM (active)

Oc1cc(-c2cccc(F)c2)nc2ccccc12
AC50 (A549): 18.8 µM (active)
IC50 [3]: > 80 µM (inactive)

O=C(CCCOc1ccc(Cl)cc1Cl)N/N=C/c1ccco1
IC50 [4]: 12.7 µM (inactive)
IC50 [5]: 12 µM (inactive)
IC50 [6]: 83.3 µM (inactive)

COc1ccccc1C(=O)NC(=S)/C=C1/N(C)c2ccccc2C1(C)C
CC50 [7]: > 40 µM (active)
IC50 (Protein Wnt-3a): 15.2 µM (active)
IC50 [8]: > 80 µM (inactive)

N#CNc1nc(O)cc(=O)[nH]1
IC50 [9]: 11.5 µM (active)
IC50 [10]: 1.24 µM (active)
IC50 [11]: 7.69 µM (active)
IC50 [12]: 2.2 µM (active)

— ChEMBL document CHEMBL1201862, “PubChem BioAssay data set” (2004)
